From ChEMBL document CHEMBL1275453, “Resistance trends of the Bacteroides fragilis group over a 10-year period, 1997 to 2006, in Madrid, Spain” (2008)
≈ marks a conversion by molar mass, not a printed value.

Tests used:
Type in all cases: functional
[1] = tested on: Bacteroides stercoris; experiment: Antibacterial activity against Bacteroides stercoris assessed as percent resistant isolates by agar dilution method; settings: pooled result: one value given for 4 cell lines, strains, targets or settings
[2] = tested on: Parabacteroides distasonis; experiment: Antibacterial activity against Bacteroides distasonis isolate by agar dilution method
[3] = tested on: Bacteroides fragilis; experiment: Antibacterial activity against Bacteroides fragilis isolate by agar dilution method
[4] = tested on: Bacteroides ovatus; experiment: Antibacterial activity against Bacteroides ovatus assessed as percent resistant isolates by agar dilution method
[5] = tested on: Bacteroides caccae; experiment: Antibacterial activity against Bacteroides caccae assessed as percent resistant isolates by agar dilution method
[6] = tested on: Bacteroides stercoris; experiment: Antibacterial activity against Bacteroides stercoris isolate by agar dilution method
[7] = tested on: Bacteroides thetaiotaomicron; experiment: Antibacterial activity against Bacteroides thetaiotaomicron isolate by agar dilution method
[8] = tested on: Parabacteroides distasonis; experiment: Antibacterial activity against Bacteroides distasonis assessed as percent resistant isolates by agar dilution method
[9] = tested on: Bacteroides uniformis; experiment: Antibacterial activity against Bacteroides uniformis assessed as percent resistant isolates by agar dilution method
[10] = tested on: Parabacteroides merdae; experiment: Antibacterial activity against Bacteroides merdae isolate by agar dilution method
[11] = tested on: Phocaeicola vulgatus; experiment: Antibacterial activity against Bacteroides vulgatus isolate by agar dilution method
[12] = tested on: Bacteroides eggerthii; experiment: Antibacterial activity against Bacteroides eggerthii isolate by agar dilution method
[13] = tested on: Bacteroides caccae; experiment: Antibacterial activity against Bacteroides caccae isolate by agar dilution method
[14] = tested on: Bacteroides sp.; experiment: Antibacterial activity against Bacteroides spp. isolate by agar dilution method
[15] = tested on: Bacteroides thetaiotaomicron; experiment: Antibacterial activity against Bacteroides thetaiotaomicron assessed as percent resistant isolates by agar dilution method
[16] = tested on: Phocaeicola vulgatus; experiment: Antibacterial activity against Bacteroides vulgatus assessed as percent resistant isolates by agar dilution method
[17] = tested on: Bacteroides ovatus; experiment: Antibacterial activity against Bacteroides ovatus isolate by agar dilution method
[18] = tested on: Bacteroides fragilis; experiment: Antibacterial activity against Bacteroides fragilis assessed as percent resistant isolates by agar dilution method
[19] = tested on: Bacteroides uniformis; experiment: Antibacterial activity against Bacteroides uniformis isolate by agar dilution method

Structure (SMILES)	Activity [1] [%]	MIC50 [2] [µg/mL]	MIC90 [2] [µg/mL]	MIC50 [3] [µg/mL]	MIC90 [3] [µg/mL]	Activity [4] [%]	Activity [5] [%]	MIC50 [6] [µg/mL]	MIC90 [6] [µg/mL]	MIC50 [7] [µg/mL]	MIC90 [7] [µg/mL]	Activity [8] [%]	Activity [9] [%]	MIC50 [10] [µg/mL]	MIC90 [10] [µg/mL]	MIC50 [11] [µg/mL]	MIC90 [11] [µg/mL]	MIC50 [12] [µg/mL]	MIC90 [12] [µg/mL]	MIC50 [13] [µg/mL]	other results
O=C(N[C@H](CO)[C@H](O)c1ccc([N+](=O)[O-])cc1)C(Cl)Cl [CHLORAMPHENICOL]	0	8 (≈ 24.8 µM)	8 (≈ 24.8 µM)	4 (≈ 12.4 µM)	8 (≈ 24.8 µM)	0	0	4 (≈ 12.4 µM)	8 (≈ 24.8 µM)	4 (≈ 12.4 µM)	8 (≈ 24.8 µM)	0	0	4 (≈ 12.4 µM)	8 (≈ 24.8 µM)	4 (≈ 12.4 µM)	8 (≈ 24.8 µM)	4 (≈ 12.4 µM)	8 (≈ 24.8 µM)	4 (≈ 12.4 µM)	MIC90 [13]: 8 µg/mL (≈ 24.8 µM); MIC50 [14]: 4 µg/mL (≈ 12.4 µM); MIC90 [14]: 8 µg/mL (≈ 24.8 µM); Activity [15]: 0%; Activity [16]: 0%; MIC50 [17]: 4 µg/mL (≈ 12.4 µM); MIC90 [17]: 8 µg/mL (≈ 24.8 µM); Activity [18]: 0%; MIC50 [19]: 4 µg/mL (≈ 12.4 µM); MIC90 [19]: 8 µg/mL (≈ 24.8 µM)
CCC[C@@H]1C[C@@H](C(=O)N[C@@H]([C@H]2O[C@H](SC)[C@H](O)[C@@H](O)[C@H]2O)[C@H](C)Cl)N(C)C1 [CLINDAMYCIN]	45.7	4 (≈ 9.41 µM)	> 256	2 (≈ 4.71 µM)	> 256	48.8	46.7	4 (≈ 9.41 µM)	> 256	4 (≈ 9.41 µM)	> 256	41.9	40.6	4 (≈ 9.41 µM)	> 256	4 (≈ 9.41 µM)	> 256	4 (≈ 9.41 µM)	> 256	4 (≈ 9.41 µM)	MIC90 [13]: > 256 µg/mL; MIC50 [14]: 4 µg/mL (≈ 9.41 µM); MIC90 [14]: > 256 µg/mL; Activity [15]: 47.3%; Activity [16]: 44.7%; MIC50 [17]: 4 µg/mL (≈ 9.41 µM); MIC90 [17]: > 256 µg/mL; Activity [18]: 33.3%; MIC50 [19]: 2 µg/mL (≈ 4.71 µM); MIC90 [19]: > 256 µg/mL
CO[C@@]1(NC(=O)Cc2cccs2)C(=O)N2C(C(=O)O)=C(COC(N)=O)CS[C@@H]21 [CEFOXITIN]	23.9	32 (≈ 74.9 µM)	64 (≈ 150 µM)	8 (≈ 18.7 µM)	32 (≈ 74.9 µM)	12.2	8.9	16 (≈ 37.4 µM)	64 (≈ 150 µM)	32 (≈ 74.9 µM)	64 (≈ 150 µM)	25.6	9.4	16 (≈ 37.4 µM)	64 (≈ 150 µM)	16 (≈ 37.4 µM)	64 (≈ 150 µM)	16 (≈ 37.4 µM)	64 (≈ 150 µM)	16 (≈ 37.4 µM)	MIC90 [13]: 32 µg/mL (≈ 74.9 µM); MIC50 [14]: 16 µg/mL (≈ 37.4 µM); MIC90 [14]: 64 µg/mL (≈ 150 µM); Activity [15]: 23.6%; Activity [16]: 17%; MIC50 [17]: 16 µg/mL (≈ 37.4 µM); MIC90 [17]: 64 µg/mL (≈ 150 µM); Activity [18]: 6.4%; MIC50 [19]: 16 µg/mL (≈ 37.4 µM); MIC90 [19]: 32 µg/mL (≈ 74.9 µM)
